Assay results: patent publication US20250382273A1 (INSTITUT NATIONAL DE LA SANTE ET DE LA RECHERCHE MEDICALE, priority 2022, published 2025)

The compounds below were run on M. tuberculosis H37Rv_gfp. Settings: in combination with pretomanid 20 ng·mL−1; 5 days at 37° C.; […]; read-out: EC50 H37Rv_gfp.
Type: cell-based, Mycobacterium tuberculosis

Structure (SMILES)	EC50
O=C(Nc1nc2ccc(-c3ccccc3C(F)(F)F)cc2s1)[C@@H]1C2C=CC(C2)[C@@H]1C(=O)O (stereo partly shown) [Example 57, 3-[6-[[2-(trifluoromethyl)phenyl]-1,3-benzothiazol-2-yl]carbamoyl]bicyclo[2.2.1]hept-5-ene-2-carboxylic acid]	1 to 5 µM
Cc1ccc2nc(N3C(=O)[C@@H]4[C@@H]5CC[C@@H](C5)[C@@H]4C3=O)sc2c1 [Example 4, (1S,2S,6R,7R)-4-(6-methyl-1,3-benzothiazol-2-yl)-4-azatricyclo[5.2.1.02,6]decane-3,5-dione]	10 to 20 µM
O=C1[C@@H]2C3C=CC(C3)[C@@H]2C(=O)N1c1nc2ccc(Nc3cccc(F)n3)cc2s1 [Example 89, 4-[6-[(6-fluoro-2-pyridyl)amino]-1,3-benzothiazol-2-yl]-4-azatricyclo[5.2.1.02,6]dec-8-ene-3,5-dione]	1 to 5 µM
COc1cc(Nc2ccc3nc(N4C(=O)[C@@H]5C6C=CC(C6)[C@@H]5C4=O)sc3c2)ccn1 [Example 92, 4-[6-[(2-methoxy-4-pyridyl)amino]-1,3-benzothiazol-2-yl]-4-azatricyclo[5.2.1.02,6]dec-8-ene-3,5-dione]	1 to 5 µM
COc1ccc2nc(NC(=O)[C@@H]3C4C=CC(C4)[C@@H]3C(=O)O)sc2c1 (stereo partly shown) [Example 6, 3-[(6-methoxy-1,3-benzothiazol-2-yl)carbamoyl]bicyclo[2.2.1]hept-5-ene-2-carboxylic acid]	1 to 5 µM
Cc1cc(C)c2nc(NC(=O)[C@@H]3C4C=CC(C4)[C@@H]3C(=O)O)sc2c1 (stereo partly shown) [Example 13, 3-[(4,6-dimethyl-1,3-benzothiazol-2-yl)carbamoyl]bicyclo[2.2.1]hept-5-ene-2-carboxylic acid]	< 1 µM
O=C(Nc1nc2ccc(-c3cccc(C(F)(F)F)c3)cc2s1)[C@@H]1C2C=CC(C2)[C@@H]1C(=O)O (stereo partly shown) [Example 59, 3-[[6-[3-(trifluoromethyl)phenyl]-1,3-benzothiazol-2-yl]carbamoyl]bicyclo[2.2.1]hept-5-ene-2-carboxylic acid]	< 1 µM
C#CCOc1cccc2sc(NC(=O)[C@@H]3C4C=CC(C4)[C@@H]3C(=O)O)nc12 (stereo partly shown) [Example 75, 3-[(4-prop-2-ynoxy-1,3-benzothiazol-2-yl)carbamoyl]bicyclo[2.2.1]hept-5-ene-2-carboxylic acid]	< 1 µM
O=C(Nc1nc2ccc(C#Cc3ccccc3)cc2s1)[C@@H]1C2C=CC(C2)[C@@H]1C(=O)O (stereo partly shown) [Example 77, 3-[[6-(2-phenylethynyl)-1,3-benzothiazol-2-yl]carbamoyl]bicyclo[2.2.1]hept-5-ene-2-carboxylic acid]	< 1 µM
O=C(Nc1nc2ccc(-c3ccncc3)cc2s1)[C@@H]1C2C=CC(C2)[C@@H]1C(=O)O (stereo partly shown) [Example 64, 3-[[6-(4-pyridyl)-1,3-benzothiazol-2-yl]carbamoyl]bicyclo[2.2.1]hept-5-ene-2-carboxylic acid]	1 to 5 µM
O=C(Nc1nc2cc(Br)ccc2s1)[C@@H]1C2C=CC(C2)[C@@H]1C(=O)O (stereo partly shown) [Example 48, 3-[(5-bromo-1,3-benzothiazol-2-yl)carbamoyl]bicyclo[2.2.1]hept-5-ene-2-carboxylic acid]	1 to 5 µM
O=C1[C@@H]2[C@H](C(=O)N1c1nc3ccc(Oc4ccc(C(F)(F)F)cc4)cc3s1)[C@@H]1C=C[C@H]2C1 [Example 23, (1R,2S,6R,7S)-4-[6-[4-(trifluoromethyl)phenoxy]-1,3-benzothiazol-2-yl]-4-azatricyclo[5.2.1.02,6]dec-8-ene-3,5-dione]	1 to 5 µM
O=C(Nc1nc2ccc(Nc3ccnc(F)c3)cc2s1)[C@@H]1C2C=CC(C2)[C@@H]1C(=O)O (stereo partly shown) [Example 99, 3-[[6-[(2-fluoro-4-pyridyl)amino]-1,3-benzothiazol-2-yl]carbamoyl]bicyclo[2.2.1]hept-5-ene-2-carboxylic acid]	5 to 10 µM
C#CCOc1ccc2nc(N3C(=O)[C@@H]4[C@H](C3=O)[C@@H]3C=C[C@H]4C3)sc2c1 [Example 73, (1R,2S,6R,7S)-4-(6-prop-2-ynoxy-1,3-benzothiazol-2-yl)-4-azatricyclo[5.2.1.02,6]dec-8-ene-3,5-dione]	< 1 µM
Cc1ccnc(Oc2ccc3nc(NC(=O)[C@@H]4C5C=CC(C5)[C@@H]4C(=O)O)sc3c2)c1 (stereo partly shown) [Example 29, 3-[[6-[(4-methyl-2-pyridyl)oxy]-1,3-benzothiazol-2-yl]carbamoyl]bicyclo[2.2.1]hept-5-ene-2-carboxylic acid]	< 1 µM
O=C(Nc1nc2ccc(C#CC3CC3)cc2s1)[C@@H]1C2C=CC(C2)[C@@H]1C(=O)O (stereo partly shown) [Example 79, 3-[[6-(2-cyclopropylethynyl)-1,3-benzothiazol-2-yl]carbamoyl]bicyclo[2.2.1]hept-5-ene-2-carboxylic acid]	< 1 µM

Structure (SMILES)	EC50
O=C(Nc1nc2ccc(Cc3ccccc3)cc2s1)[C@@H]1C2C=CC(C2)[C@@H]1C(=O)O (stereo partly shown) [Example 20, 3-[(6-benzyl-1,3-benzothiazol-2-yl)carbamoyl]bicyclo[2.2.1]hept-5-ene-2-carboxylic acid]	< 1 µM
Cc1ccnc(Nc2ccc3nc(NC(=O)[C@@H]4C5C=CC(C5)[C@@H]4C(=O)O)sc3c2)c1 (stereo partly shown) [Example 84, 3-[[6-[(4-methyl-2-pyridyl)amino]-1,3-benzothiazol-2-yl]carbamoyl]bicyclo[2.2.1]hept-5-ene-2-carboxylic acid]	1 to 5 µM
O=C1[C@@H]2[C@H](C(=O)N1c1nc3ccc(-c4ccoc4)cc3s1)[C@@H]1C=C[C@H]2C1 [Example 70, (1R,2S,6R,7S)-4-[6-(3-furyl)-1,3-benzothiazol-2-yl]-4-azatricyclo[5.2.1.02,6]dec-8-ene-3,5-dione]	1 to 5 µM
N#Cc1ccnc(Oc2ccc3nc(N4C(=O)[C@@H]5[C@H](C4=O)[C@@H]4C=C[C@H]5C4)sc3c2)c1 [Example 31, 2-[[2-[(1R,2S,6R,7S)-3,5-dioxo-4-azatricyclo[5.2.1.02,6]dec-8-en-4-yl]-1,3-benzothiazol-6-yl]oxy]pyridine-4-carbonitrile]	1 to 5 µM
O=C(O)C1C2C=CC(C2)[C@H]1C(=O)Nc1nc2ccc(-c3ccc(C(F)(F)F)nc3)cc2s1 (stereo partly shown) [Example 66, 3-[[6-[6-(trifluoromethyl)-3-pyridyl]-1,3-benzothiazol-2-yl]carbamoyl]bicyclo [2.2.1]hept-5-ene-2-carboxylic acid]	< 1 µM
O=C(Nc1nc2ccc(-c3ccc(C(F)(F)F)cc3)cc2s1)[C@@H]1C2C=CC(C2)[C@@H]1C(=O)O (stereo partly shown) [Example 60, 3-[[6-[4-(trifluoromethyl)phenyl]-1,3-benzothiazol-2-yl]carbamoyl]bicyclo[2.2.1]hept-5-ene-2-carboxylic acid]	< 1 µM
O=C1[C@@H]2C3C=CC(C3)[C@@H]2C(=O)N1c1nc2ccc(Nc3ccc(F)cn3)cc2s1 [Example 87, 4-[6-[(5-fluoro-2-pyridyl)amino]-1,3-benzothiazol-2-yl]-4-azatricyclo[5.2.1.02,6]dec-8-ene-3,5-dione]	< 1 µM
CCOc1ccc2nc(NC(=O)[C@@H]3C4C=CC(C4)[C@@H]3C(=O)O)sc2c1 (stereo partly shown) [Example 7, 3-[(6-ethoxy-1,3-benzothiazol-2-yl)carbamoyl]bicyclo[2.2.1]hept-5-ene-2-carboxylic acid]	< 1 µM
O=C(Nc1nc2cc3c(cc2s1)OCCO3)[C@@H]1C2C=CC(C2)[C@@H]1C(=O)O (stereo partly shown) [Example 10, 3-(6,7-dihydro-[1,4]dioxino[2,3-f][1,3]benzothiazol-2-ylcarbamoyl) bicyclo[2.2.1]hept-5-ene-2-carboxylic acid]	10 to 20 µM
CCc1ccc2nc(NC(=O)[C@@H]3C4C=CC(C4)[C@@H]3C(=O)O)sc2c1 (stereo partly shown) [Example 11, 3-[(6-ethyl-1,3-benzothiazol-2-yl)carbamoyl]bicyclo[2.2.1]hept-5-ene-2-carboxylic acid]	< 1 µM
Cc1ccc2sc(NC(=O)[C@@H]3C4C=CC(C4)[C@@H]3C(=O)O)nc2c1C (stereo partly shown) [Example 15, 3-[(4,5-dimethyl-1,3-benzothiazol-2-yl)carbamoyl]bicyclo[2.2.1]hept-5-ene-2-carboxylic acid]	< 1 µM
O=C(O)C1C2C=CC(C2)C1C(=O)Nc1nc2ccc([N+](=O)[O-])cc2s1 (stereo not shown) [Example 38, 3-[(6-nitro-1,3-benzothiazol-2-yl)carbamoyl]bicyclo[2.2.1]hept-5-ene-2-carboxylic acid]	1 to 5 µM
COc1cc2nc(NC(=O)[C@@H]3C4C=CC(C4)[C@@H]3C(=O)O)sc2cc1OC (stereo partly shown) [Example 9, 3-[(5,6-dimethoxy-1,3-benzothiazol-2-yl)carbamoyl]bicyclo[2.2.1]hept-5-ene-2-carboxylic acid]	5 to 10 µM
O=C(Nc1nc2ccc(Oc3ccnc(C(F)(F)F)c3)cc2s1)[C@@H]1C2C=CC(C2)[C@@H]1C(=O)O (stereo partly shown) [Example 32, 3-[[6-[[2-(trifluoromethyl)-4-pyridyl]oxy]-1,3-benzothiazol-2-yl]carbamoyl]bicyclo[2.2.1]hept-5-ene-2-carboxylic acid]	< 1 µM
CCOc1ccc2nc(N3C(=O)[C@@H]4[C@H](C3=O)[C@@H]3C=C[C@H]4C3)sc2c1 [Example 8, (1R,2S,6R,7S)-4-(6-ethoxy-1,3-benzothiazol-2-yl)-4-azatricyclo[5.2.1.02,6]dec-8-ene-3,5-dione]	< 1 µM

Same assay, conditions: in combination with pretomanid, unit inferred; read-out: average EC50 H37Rv_gfp

Structure (SMILES)	EC50
O=C(Nc1nc2ccc(-c3ccc(C(F)(F)F)cc3)cc2s1)[C@@H]1C2C=CC(C2)[C@@H]1C(=O)O (stereo partly shown) [Example 60, 3-[[6-[4-(trifluoromethyl)phenyl]-1,3-benzothiazol-2-yl]carbamoyl]bicyclo[2.2.1]hept-5-ene-2-carboxylic acid]	0.05 µM
CCOc1ccc2nc(NC(=O)[C@@H]3C4C=CC(C4)[C@@H]3C(=O)O)sc2c1 (stereo partly shown) [Example 7, 3-[(6-ethoxy-1,3-benzothiazol-2-yl)carbamoyl]bicyclo[2.2.1]hept-5-ene-2-carboxylic acid]	0.15 µM
O=C(Nc1nc2ccc(Oc3ccnc(C(F)(F)F)c3)cc2s1)[C@@H]1C2C=CC(C2)[C@@H]1C(=O)O (stereo partly shown) [Example 32, 3-[[6-[[2-(trifluoromethyl)-4-pyridyl]oxy]-1,3-benzothiazol-2-yl]carbamoyl]bicyclo[2.2.1]hept-5-ene-2-carboxylic acid]	0.32 µM

Same assay, conditions: read-out: EC50 H37Rv_gfp

Structure (SMILES)	EC50
O=C1[C@@H]2[C@H](C(=O)N1c1nc3ccc(-c4ccc(O)cc4)cc3s1)[C@@H]1C=C[C@H]2C1 [Example 63, (1R,2S,6R,7S)-4-[6-(4-hydroxyphenyl)-1,3-benzothiazol-2-yl]-4-azatricyclo[5.2.1.02,6]dec-8-ene-3,5-dione]	5 to 10 µM
N#Cc1ccc2nc(NC(=O)[C@@H]3C4C=CC(C4)[C@@H]3C(=O)O)sc2c1 (stereo partly shown) [Example 40, 3-[(6-cyano-1,3-benzothiazol-2-yl)carbamoyl]bicyclo[2.2.1]hept-5-ene-2-carboxylic acid]	1 to 5 µM
O=C1[C@@H]2[C@H](C(=O)N1c1nc3ccc(Oc4cc(C(F)(F)F)ccn4)cc3s1)[C@@H]1C=C[C@H]2C1 [Example 28, (1R,2S,6R,7S)-4-[6-[[4-(trifluoromethyl)-2-pyridyl]oxy]-1,3-benzothiazol-2-yl]-4-azatricyclo[5.2.1.02,6]dec-8-ene-3,5-dione]	< 1 µM
